# Data published in PubChem BioAssay (NCI).
#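 A five-concentration, 48-hour dose response in 96-well plates underlies each endpoint, interpolated linearly between surrounding concentrations. The concentration for 50% growth inhibition is given as GI50. The concentration for full growth arrest is given as TGI.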
# Experiments:
# Assay in all cases: NCI-60 cell line screen, 48 h
# A549 NSCLC = tested on: A549 NSCLC
# MCF7 breast = tested on: MCF7 breast
# MALME-3M melanoma = tested on: MALME-3M melanoma
# NCI-H522 lung = tested on: NCI-H522 lung
# SN12C renal = tested on: SN12C renal
# SNB-75 CNS = tested on: SNB-75 CNS
# IGROV1 ovarian = tested on: IGROV1 ovarian
# HCC-2998 colon = tested on: HCC-2998 colon
# RXF 393 renal = tested on: RXF 393 renal
# SW-620 colon = tested on: SW-620 colon
# KM12 colon = tested on: KM12 colon
# PC-3 prostate = tested on: PC-3 prostate
# SK-OV-3 ovarian = tested on: SK-OV-3 ovarian
# MDA-MB-435 = tested on: MDA-MB-435
# SK-MEL-2 melanoma = tested on: SK-MEL-2 melanoma
# MDA-MB-231 breast = tested on: MDA-MB-231 breast
# UACC-62 melanoma = tested on: UACC-62 melanoma
# NCI-H226 lung = tested on: NCI-H226 lung
# SF-295 CNS = tested on: SF-295 CNS
# SF-268 CNS = tested on: SF-268 CNS
# M14 melanoma = tested on: M14 melanoma
# CAKI-1 renal = tested on: CAKI-1 renal
# HOP-62 NSCLC = tested on: HOP-62 NSCLC
# COLO 205 colon = tested on: COLO 205 colon
# SR leukemia = tested on: SR leukemia
# ACHN renal = tested on: ACHN renal
# HCT-15 colon = tested on: HCT-15 colon
# SNB-19 CNS = tested on: SNB-19 CNS
# UACC-257 melanoma = tested on: UACC-257 melanoma
# A498 renal = tested on: A498 renal
# 786-0 renal = tested on: 786-0 renal
# OVCAR-4 ovarian = tested on: OVCAR-4 ovarian
# EKVX NSCLC = tested on: EKVX NSCLC
# DU-145 prostate = tested on: DU-145 prostate
# HOP-92 NSCLC = tested on: HOP-92 NSCLC
# UO-31 renal = tested on: UO-31 renal
# SK-MEL-5 melanoma = tested on: SK-MEL-5 melanoma
# CCRF-CEM leukemia = tested on: CCRF-CEM leukemia
# SK-MEL-28 melanoma = tested on: SK-MEL-28 melanoma
# RPMI-8226 leukemia = tested on: RPMI-8226 leukemia
# T-47D breast = tested on: T-47D breast
# HT29 colon = tested on: HT29 colon
# HL-60(TB) leukemia = tested on: HL-60(TB) leukemia
# K-562 leukemia = tested on: K-562 leukemia
# U251 CNS = tested on: U251 CNS
# SF-539 CNS = tested on: SF-539 CNS
# NCI-H460 lung = tested on: NCI-H460 lung
# TK-10 renal = tested on: TK-10 renal
# NCI/ADR-RES ovarian = tested on: NCI/ADR-RES ovarian
# LOX IMVI melanoma = tested on: LOX IMVI melanoma
# OVCAR-8 ovarian = tested on: OVCAR-8 ovarian
# MOLT-4 leukemia = tested on: MOLT-4 leukemia
# OVCAR-5 ovarian = tested on: OVCAR-5 ovarian
# HS 578T breast = tested on: HS 578T breast
# HCT-116 colon = tested on: HCT-116 colon
# BT-549 breast = tested on: BT-549 breast
# OVCAR-3 ovarian = tested on: OVCAR-3 ovarian
structure (smiles),measurement,setting,value
Cc1ccc(C2=Nn3c(nnc3-c3ccccc3)SC2)cc1,GI50,A549 NSCLC,702 nM
same,TGI,A549 NSCLC,> 100000 nM
same,GI50,MCF7 breast,1600 nM
same,TGI,MCF7 breast,> 100000 nM
same,GI50,MALME-3M melanoma,> 100000 nM
same,TGI,MALME-3M melanoma,> 100000 nM
same,GI50,NCI-H522 lung,440 nM
same,TGI,NCI-H522 lung,2540 nM
same,GI50,SN12C renal,799 nM
same,TGI,SN12C renal,> 100000 nM
same,GI50,SNB-75 CNS,392 nM
same,TGI,SNB-75 CNS,5270 nM
same,GI50,IGROV1 ovarian,801 nM
same,TGI,IGROV1 ovarian,> 100000 nM
same,GI50,HCC-2998 colon,1040 nM
same,TGI,HCC-2998 colon,> 100000 nM
same,GI50,RXF 393 renal,1870 nM
same,TGI,RXF 393 renal,19700 nM
same,GI50,SW-620 colon,378 nM
same,TGI,SW-620 colon,> 100000 nM
same,GI50,KM12 colon,17300 nM
same,TGI,KM12 colon,> 100000 nM
same,GI50,PC-3 prostate,815 nM
same,TGI,PC-3 prostate,> 100000 nM
same,GI50,SK-OV-3 ovarian,1760 nM
same,TGI,SK-OV-3 ovarian,> 100000 nM
same,GI50,MDA-MB-435,196 nM
same,TGI,MDA-MB-435,459 nM
same,GI50,SK-MEL-2 melanoma,921 nM
same,TGI,SK-MEL-2 melanoma,96900 nM
same,GI50,MDA-MB-231 breast,497 nM
same,TGI,MDA-MB-231 breast,> 100000 nM
same,GI50,UACC-62 melanoma,536 nM
same,TGI,UACC-62 melanoma,> 100000 nM
same,GI50,NCI-H226 lung,3450 nM
same,TGI,NCI-H226 lung,> 100000 nM
same,GI50,SF-295 CNS,845 nM
same,TGI,SF-295 CNS,> 100000 nM
same,GI50,SF-268 CNS,6370 nM
same,TGI,SF-268 CNS,> 100000 nM
same,GI50,M14 melanoma,435 nM
same,TGI,M14 melanoma,> 100000 nM
same,GI50,CAKI-1 renal,750 nM
same,TGI,CAKI-1 renal,> 100000 nM
same,GI50,HOP-62 NSCLC,1230 nM
same,TGI,HOP-62 NSCLC,> 100000 nM
same,GI50,COLO 205 colon,492 nM
same,TGI,COLO 205 colon,24500 nM
same,GI50,SR leukemia,251 nM
same,TGI,SR leukemia,> 100000 nM
same,GI50,ACHN renal,3270 nM
same,TGI,ACHN renal,> 100000 nM
same,GI50,HCT-15 colon,416 nM
same,TGI,HCT-15 colon,> 100000 nM
same,GI50,SNB-19 CNS,3500 nM
same,TGI,SNB-19 CNS,> 100000 nM
same,GI50,UACC-257 melanoma,> 100000 nM
same,TGI,UACC-257 melanoma,> 100000 nM
same,GI50,A498 renal,445 nM
same,TGI,A498 renal,5230 nM
same,GI50,786-0 renal,6020 nM
same,TGI,786-0 renal,> 100000 nM
same,GI50,OVCAR-4 ovarian,6280 nM
same,TGI,OVCAR-4 ovarian,> 100000 nM
same,GI50,EKVX NSCLC,6840 nM
same,TGI,EKVX NSCLC,> 100000 nM
same,GI50,DU-145 prostate,2850 nM
same,TGI,DU-145 prostate,> 100000 nM
same,GI50,HOP-92 NSCLC,2580 nM
same,TGI,HOP-92 NSCLC,> 100000 nM
same,GI50,UO-31 renal,2150 nM
same,TGI,UO-31 renal,> 100000 nM
same,GI50,SK-MEL-5 melanoma,595 nM
same,TGI,SK-MEL-5 melanoma,> 100000 nM
same,GI50,CCRF-CEM leukemia,1660 nM
same,TGI,CCRF-CEM leukemia,> 100000 nM
same,GI50,SK-MEL-28 melanoma,27400 nM
same,TGI,SK-MEL-28 melanoma,> 100000 nM
same,GI50,RPMI-8226 leukemia,895 nM
same,TGI,RPMI-8226 leukemia,> 100000 nM
same,GI50,T-47D breast,869 nM
same,TGI,T-47D breast,> 100000 nM
same,GI50,HT29 colon,412 nM
same,TGI,HT29 colon,3530 nM
same,GI50,HL-60(TB) leukemia,333 nM
same,TGI,HL-60(TB) leukemia,> 100000 nM
same,GI50,K-562 leukemia,321 nM
same,TGI,K-562 leukemia,> 100000 nM
same,GI50,U251 CNS,528 nM
same,TGI,U251 CNS,> 100000 nM
same,GI50,SF-539 CNS,925 nM
same,TGI,SF-539 CNS,4760 nM
same,GI50,NCI-H460 lung,389 nM
same,TGI,NCI-H460 lung,50000 nM
same,GI50,TK-10 renal,54100 nM
same,TGI,TK-10 renal,> 100000 nM
same,GI50,NCI/ADR-RES ovarian,262 nM
same,TGI,NCI/ADR-RES ovarian,881 nM
same,GI50,LOX IMVI melanoma,838 nM
same,TGI,LOX IMVI melanoma,> 100000 nM
same,GI50,OVCAR-8 ovarian,1780 nM
same,TGI,OVCAR-8 ovarian,84600 nM
same,GI50,MOLT-4 leukemia,461 nM
same,TGI,MOLT-4 leukemia,> 100000 nM
same,GI50,OVCAR-5 ovarian,2570 nM
same,TGI,OVCAR-5 ovarian,> 100000 nM
same,GI50,HS 578T breast,1200 nM
same,TGI,HS 578T breast,25600 nM
same,GI50,HCT-116 colon,428 nM
same,TGI,HCT-116 colon,> 100000 nM
same,GI50,BT-549 breast,385 nM
same,TGI,BT-549 breast,> 100000 nM
CNCc1cccc2c1OCCCCCCC(C)(O)CC(C)(C)S(=O)(=O)c1ccc(cc1)-c1cnc(N)c(n1)C(=O)N2 (stereo unspecified),GI50,A549 NSCLC,123 nM
same,TGI,A549 NSCLC,2460 nM
same,GI50,MALME-3M melanoma,1210 nM
same,TGI,MALME-3M melanoma,2580 nM
same,GI50,NCI-H522 lung,548 nM
same,TGI,NCI-H522 lung,2070 nM
same,GI50,SN12C renal,1170 nM
same,TGI,SN12C renal,12700 nM
same,GI50,SNB-75 CNS,453 nM
same,TGI,SNB-75 CNS,6460 nM
same,GI50,IGROV1 ovarian,433 nM
same,TGI,IGROV1 ovarian,4480 nM
same,GI50,RXF 393 renal,47.7 nM
same,TGI,RXF 393 renal,1370 nM
same,GI50,SW-620 colon,1360 nM
same,TGI,SW-620 colon,4170 nM
same,GI50,KM12 colon,1320 nM
same,TGI,KM12 colon,2940 nM
same,GI50,PC-3 prostate,910 nM
same,TGI,PC-3 prostate,9170 nM
same,GI50,SK-OV-3 ovarian,1850 nM
same,TGI,SK-OV-3 ovarian,18400 nM
same,GI50,MDA-MB-435,558 nM
same,TGI,MDA-MB-435,2050 nM
same,GI50,SK-MEL-2 melanoma,1850 nM
same,TGI,SK-MEL-2 melanoma,4250 nM
same,GI50,MDA-MB-231 breast,953 nM
same,TGI,MDA-MB-231 breast,3140 nM
same,GI50,UACC-62 melanoma,1690 nM
same,TGI,UACC-62 melanoma,3340 nM
same,GI50,NCI-H226 lung,1130 nM
same,TGI,NCI-H226 lung,6210 nM
same,GI50,SF-295 CNS,1410 nM
same,TGI,SF-295 CNS,2840 nM
same,GI50,SF-268 CNS,1270 nM
same,TGI,SF-268 CNS,3570 nM
same,GI50,CAKI-1 renal,401 nM
same,TGI,CAKI-1 renal,2270 nM
same,GI50,HOP-62 NSCLC,1320 nM
same,TGI,HOP-62 NSCLC,3750 nM
same,GI50,COLO 205 colon,66.4 nM
same,TGI,COLO 205 colon,1520 nM
same,TGI,SR leukemia,1190 nM
same,GI50,ACHN renal,30.6 nM
same,TGI,ACHN renal,2560 nM
same,GI50,HCT-15 colon,92 nM
same,TGI,HCT-15 colon,1310 nM
same,GI50,SNB-19 CNS,1880 nM
same,TGI,SNB-19 CNS,5460 nM
same,GI50,UACC-257 melanoma,1290 nM
same,TGI,UACC-257 melanoma,2720 nM
same,GI50,A498 renal,3580 nM
same,TGI,A498 renal,16000 nM
same,GI50,786-0 renal,27.9 nM
same,TGI,786-0 renal,2100 nM
same,GI50,OVCAR-4 ovarian,1130 nM
same,TGI,OVCAR-4 ovarian,2720 nM
same,GI50,EKVX NSCLC,1870 nM
same,TGI,EKVX NSCLC,6970 nM
same,GI50,DU-145 prostate,603 nM
same,TGI,DU-145 prostate,3240 nM
same,GI50,HOP-92 NSCLC,10200 nM
same,TGI,HOP-92 NSCLC,25900 nM
same,GI50,UO-31 renal,224 nM
same,TGI,UO-31 renal,2210 nM
same,GI50,SK-MEL-5 melanoma,1300 nM
same,TGI,SK-MEL-5 melanoma,2570 nM
same,GI50,CCRF-CEM leukemia,13.8 nM
same,TGI,CCRF-CEM leukemia,> 20400 nM
same,GI50,SK-MEL-28 melanoma,1240 nM
same,TGI,SK-MEL-28 melanoma,2540 nM
same,GI50,RPMI-8226 leukemia,637 nM
same,TGI,RPMI-8226 leukemia,3000 nM
same,GI50,T-47D breast,6440 nM
same,TGI,T-47D breast,32700 nM
same,GI50,HT29 colon,51.5 nM
same,TGI,HT29 colon,1890 nM
same,GI50,K-562 leukemia,43.6 nM
same,TGI,K-562 leukemia,> 100000 nM
same,GI50,U251 CNS,366 nM
same,TGI,U251 CNS,1940 nM
same,GI50,SF-539 CNS,27.4 nM
same,TGI,SF-539 CNS,2010 nM
same,GI50,TK-10 renal,3290 nM
same,TGI,TK-10 renal,12200 nM
same,GI50,OVCAR-3 ovarian,277 nM
same,GI50,MOLT-4 leukemia,15.1 nM
same,TGI,MOLT-4 leukemia,2570 nM
same,GI50,OVCAR-5 ovarian,2240 nM
same,TGI,OVCAR-5 ovarian,10300 nM
same,GI50,HS 578T breast,381 nM
same,TGI,HS 578T breast,2910 nM
same,GI50,BT-549 breast,762 nM
same,TGI,BT-549 breast,8990 nM
